Test results as given in patent US12509460B2 (Skyhawk Therapeutics, Inc., priority 2019, dated 2025).
pEC50: −log10 of the molar value. Read-outs that look alike come from different tables or passages of the source.

Key:
[1] = tested on: SMN FL and SMN Δ7 in spinal muscular atrophy (SMA) patient fibroblasts (GM03813, Coriell); test: Quantitative splicing assay (SMN), qPCR; type: cell-based, human; settings: Homo sapiens, Fibroblast, 24 h, 24 h, read-out: SMN2 Splicing FL EC50
Description: Spinal muscular atrophy (SMA) patient fibroblasts (GM03813, Coriell) are plated in 96-well plates at 50,000 cells/well. […] Treated cells are lysed and cDNA synthesized using the Fast Advanced Cells-to-Ct kit (Thermofisher A35378) according to the manufacturer's instructions. 2 μL of each cDNA are used in qPCR reactions. […] Reactions are run in a Quant Studio 6 qPCR instrument with default settings.

[2] = tested on: SMN protein in spinal muscular atrophy (SMA) patient fibroblasts (GM03813, Coriell); test: SMN protein assay, Mesoscale Discovery (MSD); type: cell-based, human; settings: read-out: SMN2 protein EC50
Outline: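 SMA patient fibroblasts (GM03813) seeded at 7000 cells/well and exposed to compound at 2.5 μM to 0.6 nM for 48 hours. Lysates assayed for SMN by MSD immunoassay, with absolute SMN amount calculated from a per-plate SMN standard curve (1 μg/ml to 19.5 pg/ml).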

[3] = tested on: MDR1; test: Blood-brain-barrier (BBB) penetration potential via MDCK-MDR1 permeability assay; settings: dog, MDCK-MDR1, pH 7.4, MDCK-MDR1: Efflux
[4] = tested on: MDR1 (P-gp); test: as above; settings: dog; for Papp A→B at 120 min, 5 μM: MDCK-MDR1, pH 7.4, MDCK-MDR1: Papp A-B; for Papp B→A at 120 min, 5 μM: MDCK-MDR1, pH 7.4, MDCK-MDR1: Papp B-A
[5] = tested on: MDR1-MDCK cell monolayers; test: as above
[6] = tested on: mHTT protein in GM04724 (CAG 70/20) Huntington's disease patient lymphoblast cells; test: mHTT protein assay, 2B7-MW1 assay via Mesoscale Discovery (MSD); type: cell-based, human
Outline: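 Patient lymphoblasts treated 48 h with compound from 10 μM to 0.6 nM. mHTT quantified by MSD 2B7-MW1 immunoassay, whose signal depends on polyQ expansion and HTT size. Viability measured on a replicate plate by CellTiter Glo.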

[7] = SMA patient fibroblasts (GM03813)
[8] = SMA patient fibroblasts (GM03813), 48 hours
[9] = GM04724 (CAG 70/20) Huntington's disease patient lymphoblasts
[10] = SMA patient fibroblasts GM03813, 24 h, qPCR
[11] = SMA patient fibroblasts GM03813, 48 hours, MSD
[12] = GM04724 Huntington's disease patient lymphoblasts

Row | Compound | pEC50 [1, 7] | pEC50 [2, 8] | efflux ratio at 120 min, 5 μM [3] | Papp A→B at 120 min, 5 μM ([4]; A-B) [×10⁻⁶ cm/s] | Papp B→A at 120 min, 5 μM ([4]; B-A) [×10⁻⁶ cm/s] | MDCK-MDR1: % Recov A-B ([5]; A-B) [%] | MDCK-MDR1: % Recov B-A ([5]; B-A) [%] | pEC50 [6, 9] | pEC50 [1, 10] | pEC50 [2, 11] | efflux ratio at 120 min, 5 μM ([3]; efflux ratio) | Papp A→B at 120 min, 5 μM ([4]; A-B direction) [×10⁻⁶ cm/s] | Papp B→A at 120 min, 5 μM ([4]; B-A direction) [×10⁻⁶ cm/s] | MDCK-MDR1: % Recov A-B ([5]; A-B direction) [%] | MDCK-MDR1: % Recov B-A ([5]; B-A direction) [%] | pEC50 [6, 12]
1 | CN(c1ccc(-c2cc3c(=O)n(C)cnc3cc2O)nn1)[C@H]1C[C@@H]2CC[C@H]([C@H]1F)N2C [Compound 102B, 6-(6-(((1R,2R,3S,5S)-2-fluoro-8-methyl-8-azabicyclo[3.2.1]octan-3-yl)(methyl)amino)pyridazin-3-yl)-7-hydroxy-3-methylquinazolin-4(3H)-one] | 6.30 to 7.00 | 7.30 to 7.80 | 30 | 1.63 | 48.1 | 91 | 91 | 7.00 to 7.29 | – | – | – | – | – | – | – | –
2 | CN(c1ccc(-c2ccc(C#N)cc2O)nn1)[C@H]1C[C@@H]2CC[C@@H](N2)[C@H]1F [Compound 38B, 4-(6-(((1R,2R,3S,5S)-2-fluoro-8-azabicyclo[3.2.1]octan-3-yl)(methyl)amino)pyridazin-3-yl)-3-hydroxybenzonitrile] | – | – | – | – | – | – | – | – | 7.30 to 7.80 | 7.30 to 7.80 | 2 | 18.9 | 47.1 | 95 | 102 | 7.30 to 7.80
3 | Cc1cc(=O)c2cc(O)c(-c3ccc(N(C)[C@H]4C[C@@H]5CC[C@H]([C@H]4F)N5C)nn3)cc2o1 [Compound 99B, 7-(6-(((1R,2R,3S,5S)-2-fluoro-8-methyl-8-azabicyclo[3.2.1]octan-3-yl)(methyl)amino)pyridazin-3-yl)-6-hydroxy-2-methyl-4H-chromen-4-one] | 7.00 to 7.29 | 7.82 to 11.00 | 21 | 2.74 | 56.7 | 103 | 112 | 6.30 to 7.00 | – | – | – | – | – | – | – | –
4 | CN(c1ccc(-c2ccc(-n3ccnc3)cc2O)nn1)[C@@H]1C[C@H]2CCC[C@H](N2)[C@@H]1F [Compound 11A, 2-(6-(((1S,2S,3R,5R)-2-fluoro-9-azabicyclo[3.3.1]nonan-3-yl)(methyl)amino)pyridazin-3-yl)-5-(1H-imidazol-1-yl)phenol] | – | – | – | – | – | – | – | – | 7.00 to 7.29 | 7.82 to 11.00 | 19 | 2.76 | 53.2 | 79 | 90 | 7.82 to 11.00
5 | CN(c1ccc(-c2ccc(-c3cnn(C(F)F)c3)cc2O)nn1)[C@@H]1C[C@H]2CCC[C@H](N2)[C@@H]1F [Compound 21A, 5-(1-(difluoromethyl)-1H-pyrazol-4-yl)-2-(6-(((1S,2S,3R,5R)-2-fluoro-9-azabicyclo[3.3.1]nonan-3-yl)(methyl)amino)pyridazin-3-yl)phenol] | – | – | – | – | – | – | – | – | 7.00 to 7.29 | 7.82 to 11.00 | 10 | 1.99 | 19.3 | 34 | 71 | 7.30 to 7.80
6 | CN(c1ccc(-c2cc3ncn(CC(F)(F)F)c(=O)c3cc2O)nn1)[C@@H]1C[C@H]2CC(F)(F)[C@@H](C1)N2 [Compound 59A, 7-(6-(((1S,3R,5R)-6,6-difluoro-8-azabicyclo[3.2.1]octan-3-yl)(methyl)amino)pyridazin-3-yl)-6-hydroxy-3-(2,2,2-trifluoroethyl)quinazolin-4(3H)-one] | – | – | – | – | – | – | – | – | 7.00 to 7.29 | 7.30 to 7.80 | 35 | 2.11 | 74 | 97 | 96 | 6.30 to 7.00
7 | CN(c1ccc(-c2ccc(-n3cnc(C#N)c3)cc2O)nn1)[C@H]1C[C@@H]2CCC[C@@H](N2)[C@H]1F [Compound 63B, 1-(4-(6-(((1R,2R,3S,5S)-2-fluoro-9-azabicyclo[3.3.1]nonan-3-yl)(methyl)amino)pyridazin-3-yl)-3-hydroxyphenyl)-1H-imidazole-4-carbonitrile] | – | – | – | – | – | – | – | – | 7.30 to 7.80 | 7.82 to 11.00 | 19 | 2.31 | 44.9 | 72 | 96 | 7.30 to 7.80
8 | CN(c1ccc(-c2ccc(-n3cnc(C#N)c3)cc2O)nn1)[C@H]1C[C@@H]2CC[C@@H](N2)[C@H]1F [Compound 69B, 1-(4-(6-(((1R,2R,3S,5S)-2-fluoro-8-azabicyclo[3.2.1]octan-3-yl)(methyl)amino)pyridazin-3-yl)-3-hydroxyphenyl)-1H-imidazole-4-carbonitrile] | – | – | – | – | – | – | – | – | 7.00 to 7.29 | 7.82 to 11.00 | 35 | 1.51 | 52.3 | 88 | 90 | 7.30 to 7.80
9 | CN(c1ccc(-c2cc3cccnc3cc2O)nn1)[C@@H]1C[C@H]2CC[C@H](N2)[C@@H]1F [Compound 74A, 6-(6-(((1S,2S,3R,5R)-2-fluoro-8-azabicyclo[3.2.1]octan-3-yl)(methyl)amino)pyridazin-3-yl)quinolin-7-ol] | – | – | – | – | – | – | – | – | 6.30 to 7.00 | 7.30 to 7.80 | 14 | 3.13 | 44.5 | 69 | 81 | 7.30 to 7.80
10 | CN(C)C(=O)c1cc2cc(O)c(-c3ccc(N(C)[C@H]4C[C@@H]5CC[C@@H](N5)[C@H]4F)nn3)cc2o1 [Compound 9B, 6-(6-(((1R,2R,3S,5S)-2-fluoro-8-azabicyclo[3.2.1]octan-3-yl)(methyl)amino)pyridazin-3-yl)-5-hydroxy-N,N-dimethylbenzofuran-2-carboxamide] | – | – | – | – | – | – | – | – | 6.30 to 7.00 | 7.30 to 7.80 | 78 | 0.62 | 48.2 | 88 | 100 | 6.30 to 7.00
